Source: US11634404B2 (priority 2016, dated 2023)

How the values were obtained:
Type in all cases: cell-based
panel of 168 GPCRs [1] = molecular target: panel of 168 GPCRs (Homo sapiens, UniProt P51684); settings: GPCR CCR6; agonist, 10 μM
panel of 168 GPCRs [2] = molecular target: panel of 168 GPCRs (Homo sapiens, UniProt P35408); settings: GPCR PTGER4; agonist, 10 μM
panel of 168 GPCRs [3] = molecular target: panel of 168 GPCRs (Homo sapiens, UniProt Q9HBW0); settings: GPCR EDG4; agonist, 10 μM
panel of 168 GPCRs [4] = molecular target: panel of 168 GPCRs (Homo sapiens, UniProt P11229); settings: GPCR CHRM1; agonist, 10 μM
panel of 168 GPCRs [5] = molecular target: panel of 168 GPCRs (Homo sapiens, UniProt Q99788); settings: GPCR CMKLR1; agonist, 10 μM
panel of 168 GPCRs [6] = molecular target: panel of 168 GPCRs (Homo sapiens, UniProt P08588); settings: GPCR ADRB1; agonist, 10 μM
panel of 168 GPCRs [7] = molecular target: panel of 168 GPCRs (Homo sapiens, UniProt P21452); settings: GPCR TACR2; agonist, 10 μM
panel of 168 GPCRs [8] = molecular target: panel of 168 GPCRs (Homo sapiens, UniProt P20309); settings: GPCR CHRM3; agonist, 10 μM
panel of 168 GPCRs [9] = molecular target: panel of 168 GPCRs (Homo sapiens, UniProt Q9Y5N1); settings: GPCR HRH3; agonist, 10 μM
panel of 168 GPCRs [10] = molecular target: panel of 168 GPCRs (Homo sapiens, UniProt O14842); settings: GPCR FFAR1; agonist, 10 μM
panel of 168 GPCRs [11] = molecular target: panel of 168 GPCRs (Homo sapiens, UniProt P43119); settings: GPCR PTGIR; agonist, 10 μM
panel of 168 GPCRs [12] = molecular target: panel of 168 GPCRs (Homo sapiens, UniProt O95838); settings: GPCR GLP2R; agonist, 10 μM
panel of 168 GPCRs [13] = molecular target: panel of 168 GPCRs (Homo sapiens, UniProt P23945); settings: GPCR FSHR; agonist, 10 μM
panel of 168 GPCRs (Homo sapiens, UniProt P23945), sequence (P23945 18-695 limits assumed): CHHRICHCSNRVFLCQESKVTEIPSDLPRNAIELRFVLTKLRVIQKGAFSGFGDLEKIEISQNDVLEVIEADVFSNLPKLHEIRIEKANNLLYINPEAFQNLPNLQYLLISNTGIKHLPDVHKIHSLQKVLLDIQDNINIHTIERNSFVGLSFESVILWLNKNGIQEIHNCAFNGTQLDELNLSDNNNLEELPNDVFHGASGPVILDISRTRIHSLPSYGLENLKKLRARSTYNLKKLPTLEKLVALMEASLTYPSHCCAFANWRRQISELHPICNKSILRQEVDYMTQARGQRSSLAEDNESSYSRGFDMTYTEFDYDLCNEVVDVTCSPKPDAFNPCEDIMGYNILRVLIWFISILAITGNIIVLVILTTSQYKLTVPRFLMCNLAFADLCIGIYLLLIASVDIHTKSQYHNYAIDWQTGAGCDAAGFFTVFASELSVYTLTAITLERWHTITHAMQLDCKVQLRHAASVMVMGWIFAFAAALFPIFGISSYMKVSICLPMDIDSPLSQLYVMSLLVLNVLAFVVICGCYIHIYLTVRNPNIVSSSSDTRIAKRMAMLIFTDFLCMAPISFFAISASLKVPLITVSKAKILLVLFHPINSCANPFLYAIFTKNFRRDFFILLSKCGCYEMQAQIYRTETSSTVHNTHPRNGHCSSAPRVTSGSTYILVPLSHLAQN

panel of 168 GPCRs [14] = molecular target: panel of 168 GPCRs (Homo sapiens, UniProt Q9HC97); settings: GPCR GPR35; agonist, 10 μM
panel of 168 GPCRs [15] = molecular target: panel of 168 GPCRs (Homo sapiens, UniProt P08912); settings: GPCR CHRM5; agonist, 10 μM
panel of 168 GPCRs [16] = molecular target: panel of 168 GPCRs (Homo sapiens, UniProt O95977); settings: GPCR EDG6; agonist, 10 μM
panel of 168 GPCRs [17] = molecular target: panel of 168 GPCRs (Homo sapiens, UniProt Q13324); settings: GPCR CRHR2; agonist, 10 μM
panel of 168 GPCRs [18] = molecular target: panel of 168 GPCRs (Homo sapiens, UniProt P43116); settings: GPCR PTGER2; agonist, 10 μM
panel of 168 GPCRs [19] = molecular target: panel of 168 GPCRs (Homo sapiens, UniProt Q15077); settings: GPCR P2RY6; agonist, 10 μM
panel of 168 GPCRs [20] = molecular target: panel of 168 GPCRs (Homo sapiens, UniProt Q01726); settings: GPCR MC1R; agonist, 10 μM
panel of 168 GPCRs [21] = molecular target: panel of 168 GPCRs (Homo sapiens, UniProt P28566); settings: GPCR HTR1E; agonist, 10 μM
panel of 168 GPCRs [22] = molecular target: panel of 168 GPCRs (Homo sapiens, UniProt P49682); settings: GPCR CXCR3; agonist, 10 μM
panel of 168 GPCRs [23] = molecular target: panel of 168 GPCRs (Homo sapiens, UniProt P35462); settings: GPCR DRD3; agonist, 10 μM
panel of 168 GPCRs [24] = molecular target: panel of 168 GPCRs (Homo sapiens, UniProt Q9H1C0); settings: GPCR GPR92; agonist, 10 μM
panel of 168 GPCRs [25] = molecular target: panel of 168 GPCRs (Homo sapiens, UniProt P32249); settings: GPCR EBI2; agonist, 10 μM
panel of 168 GPCRs [26] = molecular target: panel of 168 GPCRs (Homo sapiens, UniProt P21917); settings: GPCR DRD4; agonist, 10 μM
panel of 168 GPCRs [27] = molecular target: panel of 168 GPCRs (Homo sapiens, UniProt P41586); settings: GPCR ADCYAP1R1; agonist, 10 μM
panel of 168 GPCRs (Homo sapiens, UniProt P41586), sequence (P41586 21-468 limits assumed): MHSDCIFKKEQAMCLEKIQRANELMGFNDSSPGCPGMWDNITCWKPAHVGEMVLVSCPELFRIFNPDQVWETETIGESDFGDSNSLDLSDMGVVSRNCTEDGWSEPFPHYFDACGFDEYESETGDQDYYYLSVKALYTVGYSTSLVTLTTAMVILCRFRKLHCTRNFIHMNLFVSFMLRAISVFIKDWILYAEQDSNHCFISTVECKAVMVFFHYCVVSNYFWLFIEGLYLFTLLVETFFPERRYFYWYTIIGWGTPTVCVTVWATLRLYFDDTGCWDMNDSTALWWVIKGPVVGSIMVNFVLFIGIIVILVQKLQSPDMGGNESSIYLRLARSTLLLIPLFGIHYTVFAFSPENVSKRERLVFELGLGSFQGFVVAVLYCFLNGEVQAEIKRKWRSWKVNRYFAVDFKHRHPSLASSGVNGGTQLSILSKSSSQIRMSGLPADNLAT

panel of 168 GPCRs [28] = molecular target: panel of 168 GPCRs (Homo sapiens, UniProt P30550); settings: GPCR GRPR; agonist, 10 μM
panel of 168 GPCRs [29] = molecular target: panel of 168 GPCRs (Homo sapiens, UniProt P28222); settings: GPCR HTR1B; agonist, 10 μM
panel of 168 GPCRs [30] = molecular target: panel of 168 GPCRs (Homo sapiens, UniProt Q9H3N8); settings: GPCR HRH4; agonist, 10 μM
panel of 168 GPCRs [31] = molecular target: panel of 168 GPCRs (Homo sapiens, UniProt Q9P296); settings: GPCR C5L2; agonist, 10 μM
panel of 168 GPCRs [32] = molecular target: panel of 168 GPCRs (Homo sapiens, UniProt P48146); settings: GPCR NPBWR2; agonist, 10 μM

COc1ccc(OCCN2CCN(C(=O)c3cc4ccccc4[nH]3)CC2)cc1 [Compound 1, (1H-indol-2-yl)(4-(2-(4-methoxyphenoxy)ethyl)piperazin-1-yl)methanone]
β-Arrestin Recruitment activity (panel of 168 GPCRs [1]): 0% | β-Arrestin Recruitment activity (panel of 168 GPCRs [2]): 6% | β-Arrestin Recruitment activity (panel of 168 GPCRs [3]): 6% | β-Arrestin Recruitment activity (panel of 168 GPCRs [4]): 5% | β-Arrestin Recruitment activity (panel of 168 GPCRs [5]): 0% | β-Arrestin Recruitment activity (panel of 168 GPCRs [6]): 3% | β-Arrestin Recruitment activity (panel of 168 GPCRs [7]): 3% | β-Arrestin Recruitment activity (panel of 168 GPCRs [8]): 0% | β-Arrestin Recruitment activity (panel of 168 GPCRs [9]): 3% | β-Arrestin Recruitment activity (panel of 168 GPCRs [10]): 4% | β-Arrestin Recruitment activity (panel of 168 GPCRs [11]): 4% | β-Arrestin Recruitment activity (panel of 168 GPCRs [12]): 0% | β-Arrestin Recruitment activity (panel of 168 GPCRs [13]): 5% | β-Arrestin Recruitment activity (panel of 168 GPCRs [14]): 6% | β-Arrestin Recruitment activity (panel of 168 GPCRs [15]): 3% | β-Arrestin Recruitment activity (panel of 168 GPCRs [16]): 17% | β-Arrestin Recruitment activity (panel of 168 GPCRs [17]): 0% | β-Arrestin Recruitment activity (panel of 168 GPCRs [18]): −3% | β-Arrestin Recruitment activity (panel of 168 GPCRs [19]): 6% | β-Arrestin Recruitment activity (panel of 168 GPCRs [20]): 5% | β-Arrestin Recruitment activity (panel of 168 GPCRs [21]): 4% | β-Arrestin Recruitment activity (panel of 168 GPCRs [22]): 5% | β-Arrestin Recruitment activity (panel of 168 GPCRs [23]): 164% | β-Arrestin Recruitment activity (panel of 168 GPCRs [24]): 6% | β-Arrestin Recruitment activity (panel of 168 GPCRs [25]): 0% | β-Arrestin Recruitment activity (panel of 168 GPCRs [26]): 4% | β-Arrestin Recruitment activity (panel of 168 GPCRs [27]): 6% | β-Arrestin Recruitment activity (panel of 168 GPCRs [28]): 0% | β-Arrestin Recruitment activity (panel of 168 GPCRs [29]): 16% | β-Arrestin Recruitment activity (panel of 168 GPCRs [30]): 8% | β-Arrestin Recruitment activity (panel of 168 GPCRs [31]): 6% | β-Arrestin Recruitment activity (panel of 168 GPCRs [32]): 3%
